Laboratory results from patent publication EP0771196B1, “EXCITATORY AMINO ACID RECEPTOR ANTAGONISTS” (ELI LILLY AND COMPANY, priority 1994, dated 1996).

These compounds were tested on metabotropic glutamate receptors (assay: Displacement of 1S,3R-ACPD-sensitive [3H]glutamate binding to rat brain cell membranes). Conditions: crude membranes of rat forebrain; 10 µM compound.
Protocol: The binding of [^3H]glutamate was conducted with crude membranes of rat forebrain as described by Schoepp and True. Schoepp and True, Neuroscience Lett., 145, 100-104 (1992) and True and Schoepp, Society for Neuroscience Abstracts, 19, 470 (1993). IC50 values for the inhibition of [^3H]glutamate binding, or the percent displacement of [^3H]glutamate binding at a 10 µM concentration, of the formula I compound, is shown in Table II.

Compound	ACPD-Sensitive [^3H]Glutamate Binding % Displacement at 10 µM
CC(C)C(N)(C(=O)O)[C@H]1C[C@@H]1C(=O)O (mixture of isomers) [Example 14, 2SR- and 2RS-2-amino-2-(1SR,2SR-2-carboxycyclopropan-1-yl)-3-methylbutanoic acid]	(17%)

Same assay, conditions: crude membranes of rat forebrain; inhibition of [3H]glutamate binding

Compound	IC50
2R-2- amino-2-(1R,2R-2-carboxycyclopropan-1-yl)-3-(dibenzopyran-4-yl)propanoic acid [Example 74]	4200 nM
CCCCCCCCC(N)(C(=O)O)[C@H]1C[C@@H]1C(=O)O (mixture of isomers) [Example 13, 2SR- and 2RS-2-amino-2-(1SR,2SR-2-carboxycyclopropan-1-yl)decanoic acid]	1700 nM
CC(C)CC(N)(C(=O)O)[C@H]1C[C@@H]1C(=O)O (mixture of isomers) [Example 15, 2SR- and 2RS-2-amino-2-(1SR,2SR-2-carboxycyclopropan-1-yl)-4-methylpentanoic acid]	700 nM
CC(C)CCC(N)(C(=O)O)[C@H]1C[C@@H]1C(=O)O (mixture of isomers) [Example 16, 2SR- and 2RS-2-amino-2-(1SR,2SR-2-carboxycyclopropan-1-yl)-5-methylhexanoic acid]	1100 nM
CC(C)CCCC(N)(C(=O)O)[C@H]1C[C@@H]1C(=O)O (mixture of isomers) [Example 17, 2SR- and 2RS-2-amino-2-(1SR, 2SR-2-carboxycyclopropan-1-yl)-6-methylheptanoic acid]	850 nM
NC(CCc1ccc2ccccc2c1)(C(=O)O)[C@H]1C[C@@H]1C(=O)O (mixture of isomers) [Example 19, 2SR- and 2RS-2-amino-2-(1SR,2SR-2-carboxycyclopropan-1-yl)-4-(naphth-2-yl)butanoic acid]	2800 nM
Cc1ccccc1CCC(N)(C(=O)O)[C@H]1C[C@@H]1C(=O)O (mixture of isomers) [Example 20, 2SR- and 2RS-2-amino-2-(1SR,2SR-2-carboxycyclopropan-1-yl)-4-(2-methylphenyl)butanoic acid]	570 nM
Cc1ccc(CCC(N)(C(=O)O)[C@H]2C[C@@H]2C(=O)O)cc1 (mixture of isomers) [Example 22, 2SR- and 2RS-2-amino-2-(1SR,2SR-2-carboxycyclopropan-1-yl)-4-(4-methylphenyl)butanoic acid]	590 nM
NC(CCc1ccc(-c2ccccc2)cc1)(C(=O)O)[C@H]1C[C@@H]1C(=O)O (mixture of isomers) [Example 49, 2SR- and 2RS-2-amino-2-(1SR,2SR-2-carboxycyclopropan-1-yl)-4-(4-biphenyl)butanoic acid]	1500 nM
COc1cccc(CCC(N)(C(=O)O)[C@H]2C[C@@H]2C(=O)O)c1OC (mixture of isomers) [Example 52, 2SR- and 2RS-2-amino-2-(1SR,2SR-2-carboxycyclopropan-1-yl)-4-(2,3-dimethoxyphenyl)butanoic acid]	4900 nM
NC(CCc1ccc(C(F)(F)F)cc1)(C(=O)O)[C@H]1C[C@@H]1C(=O)O (mixture of isomers) [Example 56, 2SR- and 2RS-2-amino-2-(1SR,2SR-2-carboxycyclopropan-1-yl)-4-(4-(trifluoromethyl)phenyl)butanoic acid]	610 nM
NC(CCc1cccs1)(C(=O)O)[C@H]1C[C@@H]1C(=O)O (mixture of isomers) [Example 58, 2SR- and 2RS-2-amino-2-(1SR,2SR-2-carboxycyclopropan-1-yl)-4-(2-thienyl)butanoic acid]	580 nM
NC(CCc1cccc(-c2ccccc2)c1)(C(=O)O)[C@H]1C[C@@H]1C(=O)O (mixture of isomers) [Example 76, 2SR- and 2RS-2-amino-2-(1SR,2SR-2-carboxycyclopropan-1-yl)-4-(3-biphenyl)butanoic acid]	510 nM
NC(CCc1ccc(Br)cc1)(C(=O)O)[C@H]1C[C@@H]1C(=O)O (mixture of isomers) [Example 82, 2SR- and 2RS-2-amino-2-(1SR,2SR-2-carboxycyclopropan-1-yl)-4-(4-bromophenyl)butanoic acid]	680 nM
NC(CCC1C2CCCC1CCC2)(C(=O)O)[C@H]1C[C@@H]1C(=O)O (mixture of isomers) [Example 83, 2SR- and 2RS-2-amino-2-(1SR,2SR-2-carboxycyclopropan-1-yl)-4-(9-bicyclo[3.3.1]nonanyl)butanoic acid]	2600 nM

Continued, values first:

IC50	Compound
480 nM	NC(CCc1ccccc1C(F)(F)F)(C(=O)O)[C@H]1C[C@@H]1C(=O)O (mixture of isomers) [Example 57, 2SR- and 2RS-2-amino-2-(1SR,2SR-2-carboxycyclopropan-1-yl)-4-(2-(trifluoromethyl)phenyl)butanoic acid]
370 nM	NC(CCc1c(F)c(F)c(F)c(F)c1F)(C(=O)O)[C@H]1C[C@@H]1C(=O)O (mixture of isomers) [Example 50, 2SR- and 2RS-2-amino-2-(1SR,2SR-2-carboxycyclopropan-1-yl)-4-(2,3,4,5,6-pentafluorophenyl)butanoic acid]
370 nM	NC(CCc1ccc(C(=O)O)cc1)(C(=O)O)[C@H]1C[C@@H]1C(=O)O (mixture of isomers) [Example 80, 2SR- and 2RS-2-amino-2-(1SR,2SR-2-carboxycyclopropan-1-yl)-4-(4-carboxyphenyl)butanoic acid]
360 nM	NC(CCc1ccccc1Oc1ccccc1)(C(=O)O)[C@H]1C[C@@H]1C(=O)O (mixture of isomers) [Example 84, 2SR- and 2RS-2-amino-2-(1SR,2SR-2-carboxycyclopropan-1-yl)-4-(2-phenoxyphenyl)butanoic acid]
280 nM	Cn1cc(CCC(N)(C(=O)O)[C@H]2C[C@@H]2C(=O)O)c2ccccc21 (mixture of isomers) [Example 61, 2SR- and 2RS-2-amino-2-(1SR,2SR-2-carboxycyclopropan-1-yl)-4-(1-methylindol-3-yl)butanoic acid]
260 nM	NC(CCc1ccccc1Cl)(C(=O)O)[C@H]1C[C@@H]1C(=O)O (mixture of isomers) [Example 23, 2SR- and 2RS-2-amino-2-(1SR,2SR-2-carboxycyclopropan-1-yl)-4-(2-chlorophenyl)butanoic acid]
230 nM	NC(CC1CCCCC1)(C(=O)O)[C@H]1C[C@@H]1C(=O)O (mixture of isomers) [Example 62, 2SR- and 2RS-2-amino-2-(1SR,2SR-2-carboxycyclopropan-1-yl)-3-cyclohexylpropanoic acid]
210 nM	NC(CCc1ccsc1)(C(=O)O)[C@H]1C[C@@H]1C(=O)O (mixture of isomers) [Example 59, 2SR- and 2RS-2-amino-2-(1SR,2SR-2-carboxycyclopropan-1-yl)-4-(3-thienyl)butanoic acid]
170 nM	NC(CCc1cccc(Oc2ccccc2)c1)(C(=O)O)[C@H]1C[C@@H]1C(=O)O (mixture of isomers) [Example 60, 2SR- and 2RS-2-amino-2-(1SR,2SR-2-carboxycyclopropan-1-yl)-4-(3-phenoxyphenyl)butanoic acid]
140 nM	NC(CCc1cccc2ccccc12)(C(=O)O)[C@H]1C[C@@H]1C(=O)O (mixture of isomers) [Example 18, 2SR- and 2RS-2-amino-2-(1SR,2SR-2-carboxycyclopropan-1-yl)-4-(naphth-1-yl)butanoic acid]
120 nM	NC(CCc1ccccc1F)(C(=O)O)[C@H]1C[C@@H]1C(=O)O (mixture of isomers) [Example 55, 2SR- and 2RS-2-amino-2-(1SR,2SR-2-carboxycyclopropan-1-yl)-4-(2-fluorophenyl)butanoic acid]
110 nM	NC(CCc1cccc(Cl)c1)(C(=O)O)[C@H]1C[C@@H]1C(=O)O (mixture of isomers) [Example 24, 2SR- and 2RS-2-amino-2-(1SR,2SR-2-carboxycyclopropan-1-yl)-4-(3-chlorophenyl)butanoic acid]
95 nM	COc1cc(CCC(N)(C(=O)O)[C@H]2C[C@@H]2C(=O)O)cc(OC)c1 (mixture of isomers) [Example 53, 2SR- and 2RS-2-amino-2-(1SR,2SR-2-carboxycyclopropan-1-yl)-4-(3,5-dimethoxyphenyl)butanoic acid]
60 nM	NC(CCc1ccc(F)cc1F)(C(=O)O)[C@H]1C[C@@H]1C(=O)O (mixture of isomers) [Example 77, 2SR- and 2RS-2-amino-2-(1SR,2SR-2-carboxycyclopropan-1-yl)-4-(2,4-difluorophenyl)butanoic acid]
49 nM	NC(CCc1cccc(C(=O)O)c1)(C(=O)O)[C@H]1C[C@@H]1C(=O)O (mixture of isomers) [Example 79, 2SR- and 2RS-2-amino-2-(1SR,2SR-2-carboxycyclopropan-1-yl)-4-(3-carboxyphenyl)butanoic acid]
38 nM	Cc1cccc(CCC(N)(C(=O)O)[C@H]2C[C@@H]2C(=O)O)c1 (mixture of isomers) [Example 21, 2SR- and 2RS-2-amino-2-(1SR,2SR-2-carboxycyclopropan-1-yl)-4-(3-methylphenyl)butanoic acid]
37 nM	NC(CCc1ccc(F)c(F)c1)(C(=O)O)[C@H]1C[C@@H]1C(=O)O (mixture of isomers) [Example 78, 2SR- and 2RS-2-amino-2-(1SR,2SR-2-carboxycyclopropan-1-yl)-4-(3,4-difluorophenyl)butanoic acid]
25 nM	NC(CCc1cc(Cl)cc(Cl)c1)(C(=O)O)[C@H]1C[C@@H]1C(=O)O (mixture of isomers) [Example 75, 2SR- and 2RS-2-amino-2-(1SR,2SR-2carboxycyclopropan-1-yl)-4-(3,5-dichlorophenyl)butanoic acid]
23 nM	NC(CCc1ccc(F)cc1)(C(=O)O)[C@H]1C[C@@H]1C(=O)O (mixture of isomers) [Example 54, 2SR- and 2RS-2-amino-2-(1SR,2SR-2-carboxycyclopropan-1-yl)-4-(4-fluorophenyl)butanoic acid]
